Like-named read-outs stand apart in the source and are kept apart here.
Tests used:
[1] = system: rats; assay: positive emotional learning (PEL) test, 50-kHz ultrasonic vocalizations; format: in vivo; settings: rat, PO, one hour after administration
Experimental: Experiments were conducted as described in Burgdorf et al., “The effect of selective breeding for differential rates of 50-kHz ultrasonic vocalizations on emotional behavior in rats,” Devel. Psychobiol., 51:34-46 (2009). Rat 50-kHz ultrasonic vocalization (hedonic USVs) is a validated model for the study of positive affective state and is best elicited by rough-and-tumble play.
The PEL assay measures the acquisition of positive (hedonic) 50-kHz ultrasonic vocalizations (USVs) to a social stimulus, heterospecific rough and tumble play stimulation. Heterospecific rough-and-tumble play stimulation was administered by the experimenter's right hand. One hour after administration of test compound or vehicle negative control (0.5% sodium carboxymethyl cellulose in 0.9% sterile saline vehicle), animals received 3 min of heterospecific rough-and-tumble play that consisted of alternating 15 sec blocks of heterospecific play and 15 sec of no-stimulation. High frequency ultrasonic vocalizations (USVs) were recorded and analyzed by sonogram with Avasoft SASlab Pro (Germany) as previously described by Burgdorf et al., “Positive emotional learning is regulated in the medial prefrontal cortex by GluN2B-containing NMDA receptors,” Neuroscience, 192:515-523 (2011). Frequency modulated 50-kHz USVs that occurred during each of the no-stimulation periods were quantified to measure PEL. Animals were not habituated to play stimulation before testing. Positive emotional learning was measured during the conditioned stimulus (CS) trials preceding the tickle unconditioned stimulus (UCS) trials. Animals received 15 second trials consisting of 6 CS and 6 UCS trials each (3 min total).
The table below summarizes the findings. As each experiment includes its own vehicle group, an example (typical) vehicle score is shown. Max effect (mean number of 50 kHz USVs per 15 seconds) is reported as ^: <6.0; *: 6.0-7.6; **: 7.7-10; ***:10.1-20

[2] = biological target: T1, NMDAR2B (Homo sapiens, UniProt Q13224); assay: [3H]MK-801 binding in NMDAR2B expressing HEK cell membranes; format: biochemical; parameters: key to B: log EC50: 0=−; ≥1×10^−9 M (e.g., −8)=+; <1×10^−9 M (e.g., −10)=++; settings: 50 μM glutamate; for Emax: read-out: A: % maximal [3H]MK-801 binding relative to 1 mM glycine; for EC50: read-out: B: log EC50 (converted)
T1 construct: expressed in transfected cells; host or cells: HEK cells (membrane extract)
Experimental: (§1) Assays were conducted as described by Moskal et al., “GLYX-13: a monoclonal antibody-derived peptide that acts as an N-methyl-D-aspartate receptor modulator,” Neuropharmacology, 49, 1077-87, 2005. These studies were designed to determine if the test compounds act to facilitate NMDAR activation in NMDAR2A, NMDAR2B, NMDAR2C or NMDAR2D expressing HEK cell membranes as measured by increases in [^3H]MK-801 binding.
(§2) In the assay, 300 μg of NMDAR expressing HEK cell membrane extract protein was preincubated for 15 minutes at 25° C. in the presence of saturating concentrations of glutamate (50 μM) and varying concentrations of test compound (1×10^−15M−1×10^−7M), or 1 mM glycine. Following the addition of 0.3 μCi of [^3H]MK-801 (22.5 Ci/mmol), reactions were again incubated for 15 minutes at 25° C. (nonequilibrium conditions). Bound and free [^3H]MK-801 were separated via rapid filtration using a Brandel apparatus.
(§3) In analyzing the data, the DPM (disintegrations per minute) of [^3H]MK-801 remaining on the filter were measured for each concentration of test compound or for 1 mM glycine. The DPM values for each concentration of a ligand (N=2) were averaged. The baseline value was determined from the best fit curve of the DPM values modeled using the GraphPad program and the log(agonist) vs. response (three parameters) algorithm was then subtracted from all points in the dataset. The % maximal [^3H]MK-801 binding was then calculated relative to that of 1 mM glycine: all baseline subtracted DPM values were divided by the average value for 1 mM glycine. The EC50 and % maximal activity were then obtained from the best fit curve of the % maximal [^3H]MK-801 binding data modelled using the GraphPad program and the log(agonist) vs. response (three parameters) algorithm.
(§4) The tables below summarize the results for the wild type […] NMDAR2A, NMDAR2B, NMDAR2C, and NMDAR2D, and whether the compound is not an agonist (−), is an agonist (+), or is a strong agonist (++), where column A is based on the % maximal [^3H]MK-801 binding relative to 1 mM glycine (−=0; <100%=+; and >100%=++); and column B is based on log EC50 values (0=−; ≥1×10^−9 M (e.g., −8)=+; and <1×10^−9 M (e.g., −10)=++).

[3] = biological target: T2, NMDAR2A (Homo sapiens, UniProt Q12879); assay: [3H]MK-801 binding in NMDAR2A expressing HEK cell membranes; format: biochemical; settings: 50 μM glutamate; for Emax: read-out: A: % maximal [3H]MK-801 binding relative to 1 mM glycine; for EC50: read-out: B: log EC50 (converted)
T2 construct: expressed in transfected cells; host or cells: HEK cells (membrane extract)
Experimental: as §1, §2, §3, §4

[4] = oral pharmacokinetics (plasma, brain, CSF); format: in vivo; settings: Sprague Dawley rats, per os 10 mg/kg; for Tmax: normal saline (first four compounds: 5% NMP, 5% Solutol HS, 90% normal saline)
Experimental: Plasma, brain, and CSF samples were analyzed at various time points over a 24 hour period.

[5] = IV pharmacokinetics; format: in vivo; settings: Sprague Dawley rats; for C0: normal saline (first four compounds: 5% NMP, 5% Solutol HS, 90% normal saline); for Vd: read-out: Vss
Experimental: Sprague Dawley rats were dosed intravenously using a normal saline formulation containing 2 mg/kg of the compounds identified in the below table (except for the first four compounds that were delivered in 5% NMP, 5% Solutol® HS and 90% normal saline formulation). The table below summarizes the results of the IV pharmacokinetics.

[6] = biological target: T3, NMDAR2D (Homo sapiens, UniProt O15399); assay: [3H]MK-801 binding in NMDAR2D expressing HEK cell membranes; format: biochemical; parameters: key to B: log EC50: 0=−; ≥1×10^−9 M (e.g., −8)=+; <1×10^−9 M (e.g., −10)=++; settings: for B: log EC50: second part of table, c4, taken as NMDAR2D
T3 construct: expressed in transfected cells; host or cells: HEK cells (membrane extract)
Experimental: as §1, §2, §3, §4

[7] = system: Sprague Dawley rats; assay: Porsolt forced swim test; format: in vivo; settings: 0.1 mg/kg; for % reduction in float time: relative to vehicle group
Experimental: A non-clinical in vivo pharmacology study (Porsolt assay) was performed to measure antidepressant-like effects. A negative control (0.5% sodium carboxymethyl cellulose in 0.9% sterile saline vehicle) and a positive control (fluoxetine) are shown for comparison against test compound. The study allowed for the evaluation of the effects of each compound on the Porsolt forced swim test as assessed by the rats' response (reduced floating time) during a 5-minute swimming test.
Male 2-3 month old Sprague Dawley rats were used (Harlan, Indianapolis, Ind.). Rats were housed in Lucite cages with aspen wood chip bedding, maintained on a 12:12 light:dark cycle (lights on at 5 AM), and given ad libitum access to Purina lab chow (USA) and tap water throughout the study.
The Porsolt forced swim test adapted for use in rats was performed as described by Burgdorf et al., (The long-lasting antidepressant effects of rapastinel (GLYX-13) are associated with a metaplasticity process in the medial prefrontal cortex and hippocampus. Neuroscience 308:202-211, 2015). Animals were placed in a 46 cm tall×20 cm in diameter clear glass tube filled to 30 cm with tap water (23±1° C.) for 15 min on the first day (habituation) and 5 min on the subsequent test day. Positive control fluoxetine was dosed 3 times (24 h, 5 h and 1 h) prior to testing. Animals were tested 1 h or 24 h post-dosing with the test compounds or vehicle. Animals received a 15 min habituation session 1 day before the 5 min test. A subset of compounds tested at 1 h post-dosing were retested at 1 wk post-dosing in the same sets of animals. Water was changed after every other animal. Animals were videotaped, and floating time as defined as the minimal amount of effort required to keep the animals head above water was scored offline by a blinded experimenter with high inter-rater reliability (Pearson's r>0.9).
Each compound tested at dose level shown. Significance vs. vehicle group for each experiment is marked. […] A compound marked “No” was not statistically significant from vehicle. Data was averaged for test compound and vehicle groups (N approximately 8 per group) and the percent reduction in floating for group treated with test compound relative to group treated with vehicle is shown.

[8] = biological target: T4, NMDAR2D (Homo sapiens, UniProt O15399+Q05586); assay: [3H]MK-801 binding in NMDAR2D expressing HEK cell membranes; format: biochemical; parameters: key to B: log EC50: 0=−; ≥1×10^−9 M (e.g., −8)=+; <1×10^−9 M (e.g., −10)=++; settings: second part of table; c3, taken as NMDAR2D; read-out: A: % maximal [3H]MK-801 binding relative to 1 mM glycine
T4 construct: expressed in transfected cells; host or cells: HEK cells (membrane extract)
Experimental: as §1, §2, §3, §4

[9] = Sprague Dawley, rat, plasma, po, 10 mg/kg, read-out: Tmax
[10] = Sprague Dawley, rat, plasma, po, 10 mg/kg, plasma, read-out: Cmax
[11] = Sprague Dawley, rat, plasma, po, 10 mg/kg
[12] = Sprague Dawley, rat, in vivo, iv, 2 mg/kg
[13] = Sprague Dawley, rat, in vivo, iv, 2 mg/kg, read-out: C0

T1 sequence (Q13224 27-1484, species assumed, other chains not shown): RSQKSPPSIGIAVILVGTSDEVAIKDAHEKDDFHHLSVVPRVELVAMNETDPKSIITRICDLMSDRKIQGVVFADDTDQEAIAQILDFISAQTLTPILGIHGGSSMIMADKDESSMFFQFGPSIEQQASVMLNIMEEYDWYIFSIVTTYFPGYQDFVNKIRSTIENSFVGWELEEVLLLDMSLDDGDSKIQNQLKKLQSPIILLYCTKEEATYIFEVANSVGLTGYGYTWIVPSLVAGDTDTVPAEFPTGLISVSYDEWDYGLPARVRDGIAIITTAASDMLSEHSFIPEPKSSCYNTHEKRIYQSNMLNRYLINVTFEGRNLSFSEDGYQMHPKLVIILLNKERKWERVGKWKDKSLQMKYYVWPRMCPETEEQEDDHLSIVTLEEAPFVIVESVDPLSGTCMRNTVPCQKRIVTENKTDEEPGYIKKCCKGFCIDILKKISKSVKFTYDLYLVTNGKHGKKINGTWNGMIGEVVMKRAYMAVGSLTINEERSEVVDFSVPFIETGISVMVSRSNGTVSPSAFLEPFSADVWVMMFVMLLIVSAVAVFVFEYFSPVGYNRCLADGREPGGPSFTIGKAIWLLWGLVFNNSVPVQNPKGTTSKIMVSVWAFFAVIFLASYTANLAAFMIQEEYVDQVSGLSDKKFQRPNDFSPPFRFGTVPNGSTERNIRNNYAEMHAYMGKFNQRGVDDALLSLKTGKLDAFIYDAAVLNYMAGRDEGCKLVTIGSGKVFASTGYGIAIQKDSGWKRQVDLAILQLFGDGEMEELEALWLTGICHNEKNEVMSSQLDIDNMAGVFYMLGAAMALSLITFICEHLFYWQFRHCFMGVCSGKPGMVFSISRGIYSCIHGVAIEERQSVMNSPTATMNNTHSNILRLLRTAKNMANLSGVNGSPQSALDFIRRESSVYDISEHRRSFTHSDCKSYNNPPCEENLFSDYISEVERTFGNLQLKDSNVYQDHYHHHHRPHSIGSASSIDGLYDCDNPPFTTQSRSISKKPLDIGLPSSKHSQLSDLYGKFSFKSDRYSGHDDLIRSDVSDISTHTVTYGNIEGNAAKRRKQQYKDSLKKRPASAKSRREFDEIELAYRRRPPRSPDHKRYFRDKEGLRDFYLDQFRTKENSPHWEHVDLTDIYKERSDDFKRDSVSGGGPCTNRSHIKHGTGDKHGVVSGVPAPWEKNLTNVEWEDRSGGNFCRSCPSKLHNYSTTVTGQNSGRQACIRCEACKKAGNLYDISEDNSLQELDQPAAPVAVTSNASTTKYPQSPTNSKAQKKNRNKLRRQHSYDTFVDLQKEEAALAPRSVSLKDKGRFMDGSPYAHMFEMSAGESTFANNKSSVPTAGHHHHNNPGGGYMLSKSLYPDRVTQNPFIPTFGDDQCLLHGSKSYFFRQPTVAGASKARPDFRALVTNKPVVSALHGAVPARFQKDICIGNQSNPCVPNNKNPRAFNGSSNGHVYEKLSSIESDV
T3 sequence (O15399 28-1336, species assumed, other chains not shown): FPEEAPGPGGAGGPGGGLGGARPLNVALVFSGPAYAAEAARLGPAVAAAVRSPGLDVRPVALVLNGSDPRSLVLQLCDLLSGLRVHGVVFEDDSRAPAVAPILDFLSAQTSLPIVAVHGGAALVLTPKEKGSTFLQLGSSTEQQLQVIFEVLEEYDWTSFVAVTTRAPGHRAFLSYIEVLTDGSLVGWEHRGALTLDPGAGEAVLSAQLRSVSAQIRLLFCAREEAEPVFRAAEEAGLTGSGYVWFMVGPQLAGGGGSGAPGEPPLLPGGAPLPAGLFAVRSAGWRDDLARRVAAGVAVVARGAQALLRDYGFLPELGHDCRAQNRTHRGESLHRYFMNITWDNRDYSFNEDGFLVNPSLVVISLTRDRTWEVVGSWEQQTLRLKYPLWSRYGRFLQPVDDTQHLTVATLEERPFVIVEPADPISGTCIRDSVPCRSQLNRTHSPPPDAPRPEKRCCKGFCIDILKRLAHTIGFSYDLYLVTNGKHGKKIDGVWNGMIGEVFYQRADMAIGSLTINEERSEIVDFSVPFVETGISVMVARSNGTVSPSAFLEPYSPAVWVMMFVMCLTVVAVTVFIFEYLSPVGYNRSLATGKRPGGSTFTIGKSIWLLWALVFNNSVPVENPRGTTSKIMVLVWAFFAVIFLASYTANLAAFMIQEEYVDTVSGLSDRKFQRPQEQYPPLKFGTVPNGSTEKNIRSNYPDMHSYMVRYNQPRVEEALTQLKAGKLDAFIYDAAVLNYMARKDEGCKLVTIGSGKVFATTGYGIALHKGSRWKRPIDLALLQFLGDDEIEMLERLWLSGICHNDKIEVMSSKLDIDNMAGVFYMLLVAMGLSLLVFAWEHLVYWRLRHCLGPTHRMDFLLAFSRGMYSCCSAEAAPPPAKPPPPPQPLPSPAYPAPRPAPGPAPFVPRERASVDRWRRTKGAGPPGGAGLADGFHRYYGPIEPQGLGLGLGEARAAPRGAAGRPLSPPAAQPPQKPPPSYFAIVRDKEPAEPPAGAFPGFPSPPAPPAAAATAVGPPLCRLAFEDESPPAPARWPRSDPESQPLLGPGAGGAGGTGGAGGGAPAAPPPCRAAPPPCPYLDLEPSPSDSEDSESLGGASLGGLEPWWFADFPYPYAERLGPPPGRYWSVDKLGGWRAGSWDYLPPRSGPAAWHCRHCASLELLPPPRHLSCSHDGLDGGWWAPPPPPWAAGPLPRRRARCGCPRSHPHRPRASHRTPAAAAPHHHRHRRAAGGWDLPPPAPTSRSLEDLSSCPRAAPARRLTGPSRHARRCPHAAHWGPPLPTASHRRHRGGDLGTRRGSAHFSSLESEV
T2 sequence (Q12879 23-1464, species assumed, other chains not shown): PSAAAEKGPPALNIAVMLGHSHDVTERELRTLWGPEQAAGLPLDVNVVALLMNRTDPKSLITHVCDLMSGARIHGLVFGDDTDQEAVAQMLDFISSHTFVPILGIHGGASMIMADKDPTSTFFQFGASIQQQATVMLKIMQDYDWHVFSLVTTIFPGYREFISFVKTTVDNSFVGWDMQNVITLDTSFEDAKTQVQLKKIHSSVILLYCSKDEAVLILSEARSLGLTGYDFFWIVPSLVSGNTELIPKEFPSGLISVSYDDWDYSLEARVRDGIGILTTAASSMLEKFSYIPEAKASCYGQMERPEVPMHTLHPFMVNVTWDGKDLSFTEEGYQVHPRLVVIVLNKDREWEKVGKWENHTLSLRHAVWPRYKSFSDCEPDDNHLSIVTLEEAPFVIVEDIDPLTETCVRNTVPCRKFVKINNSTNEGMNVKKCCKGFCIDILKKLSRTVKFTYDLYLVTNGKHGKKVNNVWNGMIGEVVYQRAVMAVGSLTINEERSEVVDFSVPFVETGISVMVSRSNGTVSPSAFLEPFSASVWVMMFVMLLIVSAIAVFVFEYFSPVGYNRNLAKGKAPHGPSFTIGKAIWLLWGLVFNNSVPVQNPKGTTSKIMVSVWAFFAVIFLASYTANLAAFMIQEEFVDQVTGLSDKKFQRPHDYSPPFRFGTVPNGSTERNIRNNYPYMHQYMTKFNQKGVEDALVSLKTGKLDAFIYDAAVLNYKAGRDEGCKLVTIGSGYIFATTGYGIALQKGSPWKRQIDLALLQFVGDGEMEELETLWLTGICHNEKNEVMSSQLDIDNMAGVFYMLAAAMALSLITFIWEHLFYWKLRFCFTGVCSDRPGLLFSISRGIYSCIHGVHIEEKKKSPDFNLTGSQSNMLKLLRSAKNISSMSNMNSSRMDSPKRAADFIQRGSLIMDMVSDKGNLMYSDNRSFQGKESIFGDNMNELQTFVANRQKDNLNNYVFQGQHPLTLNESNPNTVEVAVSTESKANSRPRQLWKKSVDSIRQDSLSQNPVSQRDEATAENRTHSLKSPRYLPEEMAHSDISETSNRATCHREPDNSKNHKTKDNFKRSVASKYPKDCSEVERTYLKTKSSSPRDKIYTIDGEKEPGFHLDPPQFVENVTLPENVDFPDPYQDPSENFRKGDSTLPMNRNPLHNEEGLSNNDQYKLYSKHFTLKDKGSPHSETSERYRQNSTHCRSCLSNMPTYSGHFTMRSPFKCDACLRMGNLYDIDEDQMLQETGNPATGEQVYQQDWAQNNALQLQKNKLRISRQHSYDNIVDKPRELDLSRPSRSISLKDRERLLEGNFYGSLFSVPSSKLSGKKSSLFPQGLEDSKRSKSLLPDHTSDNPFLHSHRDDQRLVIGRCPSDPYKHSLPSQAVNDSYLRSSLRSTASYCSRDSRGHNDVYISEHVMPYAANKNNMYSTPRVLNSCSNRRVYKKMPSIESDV
T4 sequence (O15399 28-1336, species assumed, other chains not shown): as the sequence (O15399 28-1336, species assumed, other chains not shown) above

Row | Compound | Max Effect (mean number of 50 kHz USVs per 15 seconds) ([1]; dose 0.1 mg/kg) | Emax [2] [%] | EC50 [2] [nM] | Emax [3] [%] | EC50 [3] [nM] | CSF Cmax [4] [ng/mL] | Tmax [4, 9] [h] | Cmax [4, 10] [ng/mL] | Max Effect (mean number of 50 kHz USVs per 15 seconds) ([1]; dose .001-1 mg/kg) | B: log EC50 [2] | Brain Cmax [4] [ng/mL] | AUC(0-t) [4, 11] [ng·h/mL] | bioavailability [4, 11] [%] | T1/2 ([5]; intravenous 2 mg/kg) [h] | AUC(0-t) [5, 12] [ng·h/mL] | clearance [5, 12] [mL/min/kg] | C0 [5, 13] [ng/mL] | Vd [5, 12] [L/kg] | A: % maximal [3H]MK-801 binding relative to 1 mM glycine [2] | A: % maximal [3H]MK-801 binding relative to 1 mM glycine [3] | other results
1 | CC(C)(C)OC(=O)N1CCCC12CCNC2=O (single isomer, unassigned) [RT-1, tert-butyl 6-oxo-1,7-diazaspiro[4.4]nonane-1-carboxylate] | ** (**: 7.7-10) | < 100 | < 1 | < 100 | < 1 |  |  |  |  |  |  |  |  |  |  |  |  |  |  |  | 
2 | O=C1NCCC12CCCN2 (single isomer, unassigned) [RW-1, 1,7-diazaspiro[4.4]nonan-6-one] | ** (**: 7.7-10) | < 100 | < 1 | < 100 | ≥ 1 | 853 | 1 | 4070 |  |  |  |  |  |  |  |  |  |  |  |  | 
3 | O=C1NCCC12CCCNC2 (stereo not drawn) [RB-1, 2,7-diazaspiro[4.5]decan-1-one] |  | > 100 |  | < 100 | < 1 | 27.4 | 1.17 | 825 | *** (***:10.1-20) | − | 40.2 | 3290 | 52 | 3.35 | 1260 | 25.8 | 2070 | 2.79 |  |  | A: % maximal [3H]MK-801 binding relative to 1 mM glycine ([6]; second part of table (r25-r35), c3, taken as NMDAR2D): + (<100%=+)
4 | O=C1NCCC12CCCNC2 (stereo not drawn) [RC-1, 2,7-diazaspiro[4.5]decan-1-one] |  |  | < 1 |  | < 1 | 20.8 |  |  | *** (***:10.1-20) |  | 27.6 |  |  | 1.36 |  |  |  |  | ++ (>100%=++) | + (<100%=+) | % F [4]: 49%; AUClast [4]: 3668.7 ng·h/mL; Tmax [4]: 1.67 h; Cmax ([4]; plasma): 990.2 ng/mL; AUClast ([5]; intravenous 2 mg/kg): 1511.4 ng·h/mL; Cl ([5]; intravenous 2 mg/kg): 21.81 mL/min/kg; Vss ([5]; intravenous 2 mg/kg): 1.84 L/kg; C0 ([5]; intravenous 2 mg/kg): 2013.4 ng/mL; B: log EC50 [6]: −
5 | O=C1NCCC12CCCCN2 (stereo not drawn) [RG-601] |  | < 100 | < 1 | < 100 | < 1 | 1151 | 0.83 | 3990 |  |  | 1447 | 9510 | 83 |  | 2280 | 13.5 | 2850 | 1.14 |  |  | Significance vs. vehicle ([7]; 1 wk post-dose): Yes (statistically significant (p<=0.05) from vehicle at dose level shown); % reduction in float time ([7]; 1 wk post-dose): 34.4%; Significance vs. vehicle ([7]; 1 h post-dose, floating time in 5 min test): Yes (statistically significant (p<=0.05) from vehicle at dose level shown); % reduction in float time ([7]; 1 h post-dose): 82.7%; half-life [5, 12]: 1.16 h; Emax [8]: > 100%
6 | CC(C)(C)OC(=O)N1CCCCC12CCNC2=O (stereo not drawn) [RG-605] |  |  |  |  | < 1 | 1211 |  |  |  | − | 733 |  |  |  | 1580 | 21 | 3360 | 0.53 | − (−=0) | + (<100%=+) | % F [4]: 81%; AUClast [4]: 6370 ng·h/mL; Cmax ([4]; plasma): 6478 ng/mL; Tmax ([4]; rat, plasma, po, read-out: Tmax): 0.25 h; half-life [5, 12]: 0.3 h; B: log EC50 [6]: −; Emax [8]: 0%
